Laboratory results taken from patent US12264156B2, “Compounds and pharmaceutical compositions thereof for the treatment of diseases” (GALAPAGOS NV, priority 2018, dated 2025).

Experiments:
Type in all cases: biochemical
Conditions in all cases: ADP-Glo SIK kinase assay
[1] = target: T1, SIK2 (Homo sapiens, UniProt Q9H0K1); assay: ADP-Glo kinase assay, SIK2
T1 construct: purchased ThermoFisher Scientific PV4792
Outline: (§1)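 Enzyme–substrate mix was started with ATP and incubated 120 min at RT. ADP formed was quantified by ADP-Glo: 40 min ATP depletion, then 30 min detection reagent converting ADP to ATP for luciferase luminescence, which rises with kinase activity. Controls: 1% DMSO and 10 μM staurosporine (final).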

[2] = target: T2, SIK1 (Homo sapiens, UniProt P57059); assay: ADP-Glo kinase assay, SIK1
T2 construct: purchased Carna Biosciences 02-131
T2 sequence (P57059 whole entry): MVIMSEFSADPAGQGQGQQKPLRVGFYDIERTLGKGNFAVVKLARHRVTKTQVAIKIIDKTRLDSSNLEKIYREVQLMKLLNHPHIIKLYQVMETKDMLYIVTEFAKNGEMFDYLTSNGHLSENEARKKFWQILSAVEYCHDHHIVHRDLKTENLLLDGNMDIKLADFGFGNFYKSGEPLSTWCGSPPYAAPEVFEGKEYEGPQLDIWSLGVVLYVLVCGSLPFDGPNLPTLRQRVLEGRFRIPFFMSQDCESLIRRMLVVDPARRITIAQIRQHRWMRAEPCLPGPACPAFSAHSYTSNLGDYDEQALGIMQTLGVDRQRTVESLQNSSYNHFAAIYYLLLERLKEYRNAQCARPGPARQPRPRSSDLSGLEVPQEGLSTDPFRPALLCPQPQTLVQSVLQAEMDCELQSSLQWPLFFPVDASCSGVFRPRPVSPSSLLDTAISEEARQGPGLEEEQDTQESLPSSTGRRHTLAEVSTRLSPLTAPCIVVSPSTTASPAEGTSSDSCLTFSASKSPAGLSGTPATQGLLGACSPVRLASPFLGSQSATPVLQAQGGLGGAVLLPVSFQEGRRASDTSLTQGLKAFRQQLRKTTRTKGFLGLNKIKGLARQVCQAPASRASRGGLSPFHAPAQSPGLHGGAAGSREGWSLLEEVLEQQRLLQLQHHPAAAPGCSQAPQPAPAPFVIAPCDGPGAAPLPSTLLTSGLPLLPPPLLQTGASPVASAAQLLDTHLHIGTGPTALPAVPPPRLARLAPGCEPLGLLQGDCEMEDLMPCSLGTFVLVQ
Outline: as §1

[3] = target: T3, SIK3 (Homo sapiens, UniProt Q9Y2K2); assay: ADP-Glo kinase assay, SIK3
T3 construct: purchased SignalChem S12-11G-100
T3 sequence (Q9Y2K2 whole entry): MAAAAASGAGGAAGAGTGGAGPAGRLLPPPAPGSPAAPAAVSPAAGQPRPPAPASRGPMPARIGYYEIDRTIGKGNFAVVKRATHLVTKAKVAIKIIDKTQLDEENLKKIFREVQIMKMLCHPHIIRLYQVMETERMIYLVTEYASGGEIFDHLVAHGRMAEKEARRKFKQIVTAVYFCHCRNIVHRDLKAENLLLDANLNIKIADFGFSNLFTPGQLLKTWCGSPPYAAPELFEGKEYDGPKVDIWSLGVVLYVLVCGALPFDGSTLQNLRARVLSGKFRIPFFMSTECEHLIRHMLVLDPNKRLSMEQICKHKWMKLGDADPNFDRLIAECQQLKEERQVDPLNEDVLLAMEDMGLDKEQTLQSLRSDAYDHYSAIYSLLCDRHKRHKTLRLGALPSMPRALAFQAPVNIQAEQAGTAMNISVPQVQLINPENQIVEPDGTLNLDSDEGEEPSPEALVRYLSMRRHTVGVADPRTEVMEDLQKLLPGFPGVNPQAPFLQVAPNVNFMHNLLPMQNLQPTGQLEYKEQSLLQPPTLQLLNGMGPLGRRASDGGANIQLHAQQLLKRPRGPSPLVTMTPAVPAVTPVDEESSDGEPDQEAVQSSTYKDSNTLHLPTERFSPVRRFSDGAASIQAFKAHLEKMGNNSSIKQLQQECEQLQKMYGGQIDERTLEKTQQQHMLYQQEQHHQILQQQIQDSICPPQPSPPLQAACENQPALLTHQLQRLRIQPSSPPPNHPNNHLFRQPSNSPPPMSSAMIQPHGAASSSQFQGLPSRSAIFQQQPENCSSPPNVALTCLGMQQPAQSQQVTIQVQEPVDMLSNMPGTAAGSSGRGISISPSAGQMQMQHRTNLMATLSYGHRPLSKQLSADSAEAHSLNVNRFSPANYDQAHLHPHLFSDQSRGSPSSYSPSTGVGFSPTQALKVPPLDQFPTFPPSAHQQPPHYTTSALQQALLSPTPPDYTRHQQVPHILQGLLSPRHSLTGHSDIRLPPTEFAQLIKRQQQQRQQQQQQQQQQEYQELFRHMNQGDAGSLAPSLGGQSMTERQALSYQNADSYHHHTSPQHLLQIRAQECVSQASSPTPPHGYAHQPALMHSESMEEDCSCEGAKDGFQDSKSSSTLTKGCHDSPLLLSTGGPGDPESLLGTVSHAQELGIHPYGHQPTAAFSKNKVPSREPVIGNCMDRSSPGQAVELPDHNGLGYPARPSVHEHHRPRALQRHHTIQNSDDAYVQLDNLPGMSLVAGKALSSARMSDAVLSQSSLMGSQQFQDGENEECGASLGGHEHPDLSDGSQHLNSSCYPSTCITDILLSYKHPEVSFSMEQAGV
Outline: as §1

T1 sequence (Q9H0K1 whole entry): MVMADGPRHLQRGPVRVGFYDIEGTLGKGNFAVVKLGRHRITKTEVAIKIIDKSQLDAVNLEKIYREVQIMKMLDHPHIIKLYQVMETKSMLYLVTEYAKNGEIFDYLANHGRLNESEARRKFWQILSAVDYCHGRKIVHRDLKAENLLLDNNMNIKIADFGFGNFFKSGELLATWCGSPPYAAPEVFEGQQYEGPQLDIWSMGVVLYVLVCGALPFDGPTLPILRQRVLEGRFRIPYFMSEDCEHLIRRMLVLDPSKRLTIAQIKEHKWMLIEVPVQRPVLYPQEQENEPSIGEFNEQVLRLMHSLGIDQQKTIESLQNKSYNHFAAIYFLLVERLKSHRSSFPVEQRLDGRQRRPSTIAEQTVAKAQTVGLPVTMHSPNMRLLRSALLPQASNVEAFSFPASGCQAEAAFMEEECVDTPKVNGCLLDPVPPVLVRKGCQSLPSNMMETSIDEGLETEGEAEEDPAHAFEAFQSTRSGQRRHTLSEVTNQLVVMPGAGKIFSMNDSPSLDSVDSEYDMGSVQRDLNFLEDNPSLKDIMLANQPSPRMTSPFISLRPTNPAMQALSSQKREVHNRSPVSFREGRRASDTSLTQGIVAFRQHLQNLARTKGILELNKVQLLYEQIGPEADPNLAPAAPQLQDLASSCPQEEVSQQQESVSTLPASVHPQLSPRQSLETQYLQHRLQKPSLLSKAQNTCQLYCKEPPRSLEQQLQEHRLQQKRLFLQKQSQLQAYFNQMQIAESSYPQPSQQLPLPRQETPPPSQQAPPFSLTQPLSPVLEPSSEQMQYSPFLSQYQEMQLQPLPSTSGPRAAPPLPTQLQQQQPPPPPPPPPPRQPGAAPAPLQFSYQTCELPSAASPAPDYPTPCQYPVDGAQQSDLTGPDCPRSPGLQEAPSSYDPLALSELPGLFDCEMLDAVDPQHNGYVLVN

| Compound | IC50 [1] | IC50 [2] | IC50 [3] |
| --- | --- | --- | --- |
| COc1cc(-c2cnc3cc(OCCN(C)C)ccn23)cc(F)c1C(=O)NC1CC1 [compound 51, N-cyclopropyl-4-[7-[2-(dimethylamino)ethoxy]imidazo[1,2-a]pyridin-3-yl]-2-fluoro-6-methoxy-benzamide] | 10 to 100 nM | > 500 nM | 10 to 100 nM |
| CCN1CCc2cc(-c3cnc4cc(OCCN(C)C)ccn34)cc(OC)c2C1=O [compound 53, 6-[7-[2-(dimethylamino)ethoxy]imidazo[1,2-a]pyridin-3-yl]-2-ethyl-8-methoxy-3,4-dihydroisoquinolin-1-one] | 10 to 100 nM | > 500 nM | 10 to 100 nM |
| COc1cc(-c2cnc3cc(OC4CCC(F)(F)C4)ccn23)cc(OC(F)F)c1C(=O)NC1CC1 (stereo not drawn) [compound 62, N-cyclopropyl-4-[7-(3,3-difluorocyclopentoxy)imidazo[1,2-a]pyridin-3-yl]-2-(difluoromethoxy)-6-methoxy-benzamide] | 10 to 100 nM | 10 to 100 nM | 0.01 to 10 nM |
| COc1cc(-c2cnc3cc(OCC(C)(C)C)ccn23)cc(OC(F)F)c1C(=O)NC1CC1 [compound 66, N-cyclopropyl-2-(difluoromethoxy)-4-[7-(2,2-dimethylpropoxy)imidazo [1,2-a]pyridin-3-yl]-6-methoxy-benzamide] | 0.01 to 10 nM | 0.01 to 10 nM | 0.01 to 10 nM |
| COc1cc(-c2cnc3cc(OCc4ccccc4)ccn23)cc(OC(F)F)c1C(=O)NC1CC1 [compound 68, 4-(7-benzyloxyimidazo[1,2-a]pyridin-3-yl)-N-cyclopropyl-2-(difluoromethoxy)-6-methoxy-benzamide] | 0.01 to 10 nM | 0.01 to 10 nM | 0.01 to 10 nM |
| COc1cc(-c2cnc3cc(OCC4CCCCC4)ccn23)cc(OC(F)F)c1C(=O)NC1CC1 [compound 69, 4-[7-(cyclohexylmethoxy)imidazo[1,2-a]pyridin-3-yl]-N-cyclopropyl-2-(difluoromethoxy)-6-methoxy-benzamide] | 0.01 to 10 nM | 10 to 100 nM | 0.01 to 10 nM |
| COCCOc1ccn2c(-c3cc(OC)c(C(=O)NC4CC4)c(OC(F)F)c3)cnc2c1 [compound 70, N-cyclopropyl-2-(difluoromethoxy)-6-methoxy-4-[7-(2-methoxyethoxy)imidazo [1,2-a]pyridin-3-yl]benzamide] | 0.01 to 10 nM | 10 to 100 nM | 0.01 to 10 nM |
| CCOCCOc1ccn2c(-c3cc(OC)c(C(=O)NC4CC4)c(OC(F)F)c3)cnc2c1 [compound 72, N-cyclopropyl-2-(difluoromethoxy)-4-[7-(2-ethoxyethoxy)imidazo [1,2-a]pyridin-3-yl]-6-methoxy-benzamide] | 0.01 to 10 nM | 10 to 100 nM | 0.01 to 10 nM |
| COc1cc(-c2cnc3cc(OCCOCCO)ccn23)cc(OC(F)F)c1C(=O)NC1CC1 [compound 73] | 0.01 to 10 nM | 10 to 100 nM | 0.01 to 10 nM |
| COc1cc(-c2cnc3cc(OCC(C)(C)CO)ccn23)cc(OC(F)F)c1C(=O)NC1CC1 [compound 74, N-cyclopropyl-2-(difluoromethoxy)-4-[7-(3-hydroxy-2,2-dimethyl-propoxy)imidazo[1,2-a]pyridin-3-yl]-6-methoxy-benzamide] | 0.01 to 10 nM | 10 to 100 nM | 0.01 to 10 nM |
| COc1cc(-c2cnc3cc(OCC4CCC(F)(F)C4)ccn23)cc(OC(F)F)c1C(=O)NC1CC1 (stereo not drawn) [compound 75, N-cyclopropyl-4-[7-[(3,3-difluorocyclopentyl)methoxy]imidazo[1,2-a]pyridin-3-yl]-2-(difluoromethoxy)-6-methoxy-benzamide] | 0.01 to 10 nM | 0.01 to 10 nM | 0.01 to 10 nM |
| COc1cc(-c2cnc3cc(OCCC4CC(F)(F)C4)ccn23)cc(OC(F)F)c1C(=O)NC1CC1 [compound 76, N-cyclopropyl-4-[7-[2-(3,3-difluorocyclobutyl)ethoxy]imidazo[1,2-a]pyridin-3-yl]-2-(difluoromethoxy)-6-methoxy-benzamide] | 0.01 to 10 nM | 10 to 100 nM | 0.01 to 10 nM |
| COc1cc(-c2cnc3cc(OC4CCC(F)(F)CC4)ccn23)cc(OC(F)F)c1C(=O)NC1CC1 [compound 77, N-cyclopropyl-4-[7-(4,4-difluorocyclohexoxy)imidazo[1,2-a]pyridin-3-yl]-2-(difluoromethoxy)-6-methoxy-benzamide] | 10 to 100 nM | 100 to 500 nM | 0.01 to 10 nM |
| COc1cc(-c2cnc3cc(OC[C@H]4CCCN4CC(F)F)ccn23)cc(OC(F)F)c1C(=O)NC1CC1 [compound 80, N-cyclopropyl-4-[7-[[(2R)-1-(2,2-difluoroethyl)pyrrolidin-2-yl]methoxy]imidazo[1,2-a]pyridin-3-yl]-2-(difluoromethoxy)-6-methoxy-benzamide] | 0.01 to 10 nM | 10 to 100 nM | 0.01 to 10 nM |

Now from value to molecule:

| IC50 [1] | IC50 [2] | IC50 [3] | Compound |
| --- | --- | --- | --- |
| 0.01 to 10 nM | 10 to 100 nM | 0.01 to 10 nM | COCCOCCOc1ccn2c(-c3cc(OC)c(C(=O)NC4CC4)c(OC(F)F)c3)cnc2c1 [compound 38, N-cyclopropyl-2-(difluoromethoxy)-6-methoxy-4-[7-[2-(2-methoxyethoxy)ethoxy]imidazo[1,2-a]pyridin-3-yl]benzamide] |
| 0.01 to 10 nM | 0.01 to 10 nM | 0.01 to 10 nM | COc1cc(-c2cnc3cc(OCC4CC4(F)F)ccn23)cc(OC(F)F)c1C(=O)NC1CC1 (stereo not drawn) [compound 42, N-cyclopropyl-4-[7-[(2,2-difluorocyclopropyl)methoxy]imidazo[1,2-a]pyridin-3-yl]-2-(difluoromethoxy)-6-methoxy-benzamide] |
| 0.01 to 10 nM | 10 to 100 nM | 0.01 to 10 nM | COc1cc(-c2cnc3cc(OCc4cccnc4)ccn23)cc(OC(F)F)c1C(=O)NC1CC1 [compound 43, N-cyclopropyl-2-(difluoromethoxy)-6-methoxy-4-[7-(3-pyridylmethoxy)imidazo [1,2-a]pyridin-3-yl]benzamide] |
| 0.01 to 10 nM | 10 to 100 nM | 0.01 to 10 nM | COc1cc(-c2cnc3cc(OCc4cscn4)ccn23)cc(OC(F)F)c1C(=O)NC1CC1 [compound 46, N-cyclopropyl-2-(difluoromethoxy)-6-methoxy-4-[7-(thiazol-4-ylmethoxy)imidazo[1,2-a]pyridin-3-yl]benzamide] |
| 0.01 to 10 nM | 10 to 100 nM | 0.01 to 10 nM | COc1cc(-c2cnc3cc(OCc4nccs4)ccn23)cc(OC(F)F)c1C(=O)NC1CC1 [compound 47, N-cyclopropyl-2-(difluoromethoxy)-6-methoxy-4-[7-(thiazol-2-ylmethoxy)imidazo[1,2-a]pyridin-3-yl]benzamide] |
| 0.01 to 10 nM | 0.01 to 10 nM | 0.01 to 10 nM | COc1cc(-c2cnc3cc(OCC4CCOCC4)ccn23)cc(OC(F)F)c1C(=O)NC1CC1 [compound 49, N-cyclopropyl-2-(difluoromethoxy)-6-methoxy-4-[7-(tetrahydropyran-4-ylmethoxy)imidazo[1,2-a]pyridin-3-yl] benzamide] |
| 0.01 to 10 nM | 0.01 to 10 nM | 0.01 to 10 nM | COc1cc(-c2cnc3cc(OCC4CC(F)(F)C4)ccn23)cc(OC(F)F)c1C(=O)NC1CC1 [compound 52, N-cyclopropyl-4-[7-[(3,3-difluorocyclobutyl)methoxy]imidazo[1,2-a]pyridin-3-yl]-2-(difluoromethoxy)-6-methoxy-benzamide] |
| 0.01 to 10 nM | 10 to 100 nM | 0.01 to 10 nM | COC(=O)C1(COc2ccn3c(-c4cc(OC)c(C(=O)NC5CC5)c(OC(F)F)c4)cnc3c2)CC1 [compound 57, methyl 1-[[3-[4-(cyclopropylcarbamoyl)-3-(difluoromethoxy)-5-methoxy-phenyl]imidazo[1,2-a]pyridin-7-yl]oxymethyl] cyclopropanecarboxylate] |
| 0.01 to 10 nM | 0.01 to 10 nM | 0.01 to 10 nM | COc1cc(-c2cnc3cc(OCC4CCCOC4)ccn23)cc(OC(F)F)c1C(=O)NC1CC1 (stereo not drawn) [compound 59, N-cyclopropyl-2-(difluoromethoxy)-6-methoxy-4-[7-(tetrahydropyran-3-ylmethoxy)imidazo[1,2-a]pyridin-3-yl]benzamide] |
| 0.01 to 10 nM | 10 to 100 nM | 0.01 to 10 nM | COc1cc(-c2cnc3cc(OCc4cocn4)ccn23)cc(OC(F)F)c1C(=O)NC1CC1 [compound 60, N-cyclopropyl-2-(difluoromethoxy)-6-methoxy-4-[7-(oxazol-4-ylmethoxy)imidazo[1,2-a]pyridin-3-yl]benzamide] |
| 0.01 to 10 nM | 0.01 to 10 nM | 0.01 to 10 nM | COc1cc(-c2cnc3cc(OCC4CCCC4)ccn23)cc(OC(F)F)c1C(=O)NC1CC1 [compound 61, 4-[7-(cyclopentylmethoxy)imidazo[1,2-a]pyridin-3-yl]-N-cyclopropyl-2-(difluoromethoxy)-6-methoxy-benzamide] |
| 0.01 to 10 nM | 0.01 to 10 nM | 0.01 to 10 nM | COc1cc(-c2cnc3cc(OCCN4CCCC4=O)ccn23)cc(OC(F)F)c1C(=O)NC1CC1 [compound 63, N-cyclopropyl-2-(difluoromethoxy)-6-methoxy-4-[7-[2-(2-oxopyrrolidin-1-yl)ethoxy]imidazo[1,2-a]pyridin-3-yl]benzamide] |
| 0.01 to 10 nM | 0.01 to 10 nM | 0.01 to 10 nM | COc1cc(-c2cnc3cc(OCCOCCN(C)C)ccn23)cc(OC(F)F)c1C(=O)NC1CC1 [compound 65, N-cyclopropyl-2-(difluoromethoxy)-4-[7-[2-[2-(dimethylamino)ethoxy]ethoxy]imidazo[1,2-a]pyridin-3-yl]-6-methoxy-benzamide] |
